From patent US20250144067A1, “PERSONALIZED STARVATION THERAPY FOR CANCER” (Faeth Therapeutics, Inc., priority 2021, published 2025)
Where a name gives a salt, the structure may show the parent alone. Read-outs that look alike come from different tables or passages of the source.

Columns and labels:
[1] = tested on: NCI-H292 lung cancer cells; assay: FDA drug screening, complete media vs cholesterol-free media with simvastatin (TABLE 2); type: cell-based, human
[2] = tested on: NCI-H292 lung cancer cells; assay: FDA drug screening, complete media vs cholesterol-free media without statin (TABLE 1); type: cell-based, human
[3] = NCI-H292 cells, FDA drug library screen, cholesterol-free media with simvastatin 0.04 μM
[4] = NCI-H292 cells, FDA drug library screen, complete media
[5] = complete media vs cholesterol-free media + simvastatin (0.04 μM), >0 enhanced anti-cancer activity, about 0 neutral, <0 antagonist
[6] = Complete minus Cholesterol-free, >0 enhanced anti-cancer activity, about 0 neutral, <0 antagonist
[7] = NCI-H292 cells, cholesterol-free media without statin, FDA drug library screen
[8] = NCI-H292 cells, complete media, FDA drug library screen
[9] = NCI-H292 cells, drug in cholesterol-free media with simvastatin 0.04 μM
[10] = NCI-H292 cells, drug in complete media
[11] = NCI-H292 cells, FDA library drug in cholesterol-free media with simvastatin 0.04 μM
[12] = NCI-H292 cells, FDA library drug in complete media
[13] = Complete minus Cholesterol-free, greater than 0 enhanced anti-cancer activity, about 0 neutral, below 0 antagonist
[14] = NCI-H292 cells, FDA drug library screen, cholesterol-free media without statin
[15] = NCI-H292 cells, cholesterol-free media with simvastatin 0.04 μM, FDA drug library screen (TABLE 2)
[16] = NCI-H292 cells, complete media, FDA drug library screen (TABLE 2)
[17] = complete media minus cholesterol-free media + simvastatin (0.04 μM), >0 enhanced anti-cancer activity, about 0 neutral, <0 antagonist
[18] = NCI-H292 cells, cholesterol-free media without statin
[19] = NCI-H292 cells, cholesterol-free media with simvastatin 0.04 μM, cell growth value in FDA drug screen
[20] = NCI-H292 cells, complete media, cell growth value in FDA drug screen
[21] = complete media minus cholesterol-free media + simvastatin, >0 enhanced anti-cancer activity, about 0 neutral, <0 antagonist
[22] = Complete minus Cholesterol-free, greater than 0 enhanced anti-cancer activity, about 0 neutral, below 0 antagonists
[23] = NCI-H292 cells in cholesterol-free media without statin
[24] = NCI-H292 cells in complete media
[25] = complete vs cholesterol-free media, greater than 0 enhanced anti-cancer activity, about 0 neutral, below 0 antagonists
[26] = Complete minus Cholesterol-free, […]
[27] = NCI-H292 cells, cholesterol-free media with simvastatin 0.04 μM, […]
[28] = NCI-H292 cells, complete media, […]
[29] = complete media minus cholesterol-free media + simvastatin, […]
[30] = complete media vs cholesterol-free media + simvastatin (0.04 μM), […]
[31] = complete vs cholesterol-free media, […]

In the case of `CCN1CCCC(OC(=O)C(c2ccccc2)c2ccccc2)C1` (centres unmarked) [Piperidolate (hydrochloride)], the “Cholesterol-free media + simvastatin (0.04 μM)” value ([1]; (hydrochloride)) is reported as 0.5751, the “Complete Media” value ([1]; (hydrochloride)) is reported as 0.901 and the Difference ([1]; (hydrochloride)) is reported as 0.33. The Cholesterol-free ([2]; (hydrochloride)) was 0.554, the Complete ([2]; (hydrochloride)) was 1.098 and the Difference ([2]; (hydrochloride)) was 0.54.

In the case of `C=CC(=O)N1CCC[C@@H](n2nc(-c3ccc(Oc4ccccc4)cc3)c3c(N)ncnc32)C1` [Ibrutinib], the “Cholesterol-free media + simvastatin (0.04 μM)” value [1, 3] is reported as 0.5962, the “Complete Media” value [1, 4] is reported as 0.4594 and the Difference [1, 5] is reported as −0.14. The Difference [2, 6] was −0.07, the Cholesterol-free [2, 7] was 0.4459 and the Complete [2, 8] was 0.3765.

For `C#C[C@]1(O)CC[C@H]2[C@@H]3CCc4cc(O)ccc4[C@H]3CC[C@@]21C` [Ethynyl Estradiol], the “Cholesterol-free media + simvastatin (0.04 μM)” value [1, 9] was 1.254, the “Complete Media” value [1, 10] was 1.055 and the Difference [1, 5] was −0.20. For the same compound, the Cholesterol-free [2, 7] was 0.8735, the Complete [2, 8] was 1.393 and the Difference ([2]; complete vs cholesterol-free media, >0 enhanced anti-cancer activity, about 0 neutral, <0 antagonist) was 0.52.

`COc1ccnc(C[S+]([O-])c2nc3cc(-n4cccc4)ccc3[nH]2)c1C` (centres unmarked) [Ilaprazole] was tested, and the “Cholesterol-free media + simvastatin (0.04 μM)” value [1, 11] was 1.567, the “Complete Media” value [1, 12] was 1.084 and the Difference [1, 5] was −0.48. For the same compound, the Difference [2, 13] was −0.14, the Cholesterol-free [2, 14] was 1.326 and the Complete [2, 4] was 1.19.

For `Cn1c(=O)c2c(ncn2CC(=O)O)n(C)c1=O` [Acefylline], the “Cholesterol-free media + simvastatin (0.04 μM)” value [1, 15] was 1.078, the “Complete Media” value [1, 16] was 1.058 and the Difference [1, 17] was −0.02. It also gave a Difference [2, 6] of −0.31 and a Cholesterol-free [2, 18] of 1.455.

`COc1cc2ncnc(Nc3ccc(F)c(Cl)c3)c2cc1NC(=O)/C=C/CN1CCCCC1` [Dacomitinib] was tested, and the “Cholesterol-free media + simvastatin (0.04 μM)” value [1, 19] was 0.3301, the “Complete Media” value [1, 20] was 0.437 and the Difference [1, 21] was 0.11. For the same compound, the Difference [2, 13] was −0.12, the Cholesterol-free [2, 14] was 0.3597 and the Complete [2, 4] was 0.2371.

In the case of `CC(C)(C)C(=O)Oc1ccc(S(=O)(=O)Nc2ccccc2C(=O)NCC(=O)O)cc1` [Sivelestat (sodium tetrahydrate)], the “Cholesterol-free media + simvastatin (0.04 μM)” value [1, 15] is reported as 1.071, the “Complete Media” value [1, 16] is reported as 1.039 and the Difference [1, 17] is reported as −0.03. For the same compound, the Difference [2, 6] was −0.30, the Cholesterol-free [2, 18] was 1.29 and the Complete ([2]; NCI-H292 cells, complete media) was 0.9928.

`NCc1ccccc1CC(=O)N[C@@H]1C(=O)N2C(C(=O)O)=C(CSc3nnnn3CC(=O)O)CS[C@H]12` [Ceforanide] was tested, and the “Cholesterol-free media + simvastatin (0.04 μM)” value [1, 3] was 1.034, the “Complete Media” value [1, 4] was 1.331 and the Difference [1, 21] was 0.30. For the same compound, the Difference [2, 22] was −0.76, the Cholesterol-free [2, 23] was 1.736 and the Complete [2, 24] was 0.9794.

With `O=C(O)CCCCC1CCSS1` (centres unmarked) [Lipoic acid] the “Cholesterol-free media + simvastatin (0.04 μM)” value [1, 3] was 0.7443, the “Complete Media” value [1, 4] was 1.012 and the Difference [1, 21] was 0.27. The Difference [2, 13] was −0.11, the Cholesterol-free [2, 14] was 0.8613 and the Complete [2, 4] was 0.7528.

For `Nc1nc(Cl)nc2c1ncn2[C@@H]1O[C@H](CO)[C@@H](O)[C@@H]1F` [Clofarabine], the “Cholesterol-free media + simvastatin (0.04 μM)” value [1, 15] was 0.03305, the “Complete Media” value [1, 16] was 0.03609 and the Difference [1, 17] was 0.00. It also gave a Cholesterol-free [2, 18] of 0.802, a Complete ([2]; NCI-H292 cells, complete media) of 0.4474 and a Difference [2, 25] of −0.35.

Dexchlorpheniramine (maleate) was tested, and the “Cholesterol-free media + simvastatin (0.04 μM)” value [1, 15] was 0.9393, the “Complete Media” value [1, 16] was 0.9459 and the Difference [1, 17] was 0.01. It also gave a Difference [2, 6] of −0.05.

`O=C(c1ccc(F)c(F)c1Nc1ccc(I)cc1F)N1CC(O)([C@@H]2CCCCN2)C1` (racemic) [Cobimetinib (racemate)] was tested, and the “Cholesterol-free media + simvastatin (0.04 μM)” value [1, 3] was 0.2662, the “Complete Media” value [1, 4] was 0.405 and the Difference [1, 21] was 0.14. It also gave a Difference [2, 6] of −0.02, a Cholesterol-free [2, 7] of 0.2982 and a Complete [2, 8] of 0.2751.

`CCCCCCOC(=O)N=C(N)c1ccc(NCc2nc3cc(C(=O)N(CCC(=O)OCC)c4ccccn4)ccc3n2C)cc1` [Dabigatran etexilate] was tested, and the “Cholesterol-free media + simvastatin (0.04 μM)” value [1, 19] was 0.8555, the “Complete Media” value [1, 20] was 0.8818 and the Difference [1, 21] was 0.03. For the same compound, the Difference [2, 13] was −0.09, the Cholesterol-free [2, 14] was 0.9682 and the Complete [2, 4] was 0.8738.

`CC(COc1ccccc1)N(CCCl)Cc1ccccc1` (centres unmarked) [Phenoxybenzamine (hydrochloride)] was tested, and the “Cholesterol-free media + simvastatin (0.04 μM)” value [1, 15] was 0.9012, the “Complete Media” value [1, 16] was 0.8799 and the Difference ([1]; complete media minus cholesterol-free media + simvastatin (0.04 μM), […]) was −0.02. The Difference [2, 26] was −0.20, the Cholesterol-free [2, 18] was 0.9421 and the Complete ([2]; NCI-H292 cells, complete media) was 0.7375.

Enasidenib (mesylate) was tested, and the “Cholesterol-free media + simvastatin (0.04 μM)” value [1, 27] was 1.526, the “Complete Media” value [1, 28] was 1.616 and the Difference [1, 29] was 0.09. The Difference [2, 26] was −0.61, the Cholesterol-free [2, 23] was 1.538 and the Complete [2, 24] was 0.9281.

`COc1ccc(C(CN(C)C)C2(O)CCCCC2)cc1` (centres unmarked) [Venlafaxine (hydrochloride)] was tested, and the “Cholesterol-free media + simvastatin (0.04 μM)” value [1, 11] was 1.551, the “Complete Media” value [1, 12] was 1.023 and the Difference [1, 30] was −0.53. For the same compound, the Cholesterol-free [2, 18] was 1.049, the Complete ([2]; NCI-H292 cells, complete media) was 0.7326 and the Difference [2, 31] was −0.32.

`CC[C@H](C)C(=O)N1CCC(NC(=O)Nc2ccc(OC(F)(F)F)c(F)c2)CC1` [EC5026] was tested, and the “Cholesterol-free media + simvastatin (0.04 μM)” value [1, 3] was 1.241, the “Complete Media” value [1, 4] was 1.143 and the Difference [1, 30] was −0.10. It also gave a Cholesterol-free [2, 18] of 1.148, a Complete ([2]; NCI-H292 cells, complete media) of 0.7425 and a Difference [2, 31] of −0.41.

`CC1(C)O[C@@H]2C[C@H]3[C@@H]4CCC5=CC(=O)C=C[C@]5(C)[C@H]4[C@@H](O)C[C@]3(C)[C@]2(C(=O)CO)O1` [Desonide] was tested, and the “Cholesterol-free media + simvastatin (0.04 μM)” value [1, 19] was 0.6303, the “Complete Media” value [1, 20] was 0.7658 and the Difference [1, 21] was 0.14. The Difference [2, 6] was −0.07, the Cholesterol-free [2, 7] was 0.6524 and the Complete [2, 8] was 0.5811.

`CCCN1CCCC[C@H]1C(=O)Nc1c(C)cccc1C.CS(=O)(=O)O` [Ropivacaine (mesylate)] was tested, and the “Cholesterol-free media + simvastatin (0.04 μM)” value [1, 3] was 0.9302, the Difference [1, 21] was 0.22 and the Cholesterol-free [2, 18] was 1.155. The Complete ([2]; NCI-H292 cells, complete media) was 0.7954 and the Difference [2, 25] was −0.36.

`CCCN[C@H]1CCc2nc(N)sc2C1` [Pramipexole (dihydrochloride)] was tested, and the “Cholesterol-free media + simvastatin (0.04 μM)” value [1, 15] was 0.885, the “Complete Media” value [1, 16] was 0.866 and the Difference [1, 17] was −0.02. The Difference [2, 22] was −0.49, the Cholesterol-free [2, 23] was 1.504 and the Complete [2, 24] was 1.014.

In the case of `COc1ccc(/C=C/C(=O)Nc2ccccc2C(=O)O)cc1OC` [Tranilast], the “Cholesterol-free media + simvastatin (0.04 μM)” value [1, 9] is reported as 1.221, the “Complete Media” value [1, 10] is reported as 1.04 and the Difference [1, 5] is reported as −0.18. For the same compound, the Difference [2, 6] was −0.27, the Cholesterol-free [2, 18] was 0.8255 and the Complete ([2]; NCI-H292 cells, complete media) was 0.5543.

With `CC(C)[C@H](N)C(=O)O` [L-Valine] the “Cholesterol-free media + simvastatin (0.04 μM)” value [1, 27] was 0.8399, the “Complete Media” value [1, 28] was 0.8676 and the Difference [1, 29] was 0.03. The Difference [2, 26] was −0.26, the Cholesterol-free [2, 18] was 1.382 and the Complete ([2]; NCI-H292 cells, complete media) was 1.127.

In the case of `NC(CO)(CO)CO.O=C(c1ccccc1)c1ccc2n1CCC2C(=O)O` (centres unmarked) [Ketorolac (tromethamine salt)], the “Cholesterol-free media + simvastatin (0.04 μM)” value [1, 9] is reported as 1.289, the “Complete Media” value [1, 10] is reported as 1.116 and the Difference [1, 5] is reported as −0.17. The Cholesterol-free [2, 18] was 1.112, the Complete ([2]; NCI-H292 cells, complete media) was 0.6871 and the Difference [2, 25] was −0.42.

For `NC(=O)CCC(N)C(=O)O` (racemic) [DL-Glutamine], the “Cholesterol-free media + simvastatin (0.04 μM)” value [1, 11] was 0.9407, the “Complete Media” value [1, 12] was 0.6307 and the Difference [1, 5] was −0.31. For the same compound, the Difference [2, 13] was −0.07, the Cholesterol-free [2, 14] was 1.771 and the Complete [2, 4] was 1.698.

In the case of `O=C(O)CCCC[C@@H]1SC[C@@H]2NC(=O)N[C@@H]21` [Biotin], the “Cholesterol-free media + simvastatin (0.04 μM)” value [1] is reported as 1.06, the “Complete Media” value [1] is reported as 0.9767 and the Difference [1] is reported as −0.08. It also gave a Cholesterol-free [2] of 1.067, a Complete [2] of 0.6067 and a Difference [2] of −0.46.
